For one assay, the target named is CTX-M-15 (Escherichia coli, UniProt Q9EXV5). Put plainly: Competition assay with nitrocefin (IC50). Format: biochemical.
Assay [1] has as its system Klebsiella oxytoca isolates. Put plainly: MIC of cephalosporins alone or with clavulanate/tazobactam. As to conditions: clavulanate 2:1, tazobactam 4 μg/mL. In kind it is cell-based.

Molecules are shown by their SMILES. Where two headings read alike, the source gives them in different places.

What is called IC50 is the concentration that gives 50% inhibition. Usually MIC stands for the smallest concentration in the dilution series that meets the test's criterion for growth inhibition.

CTX-M-15, sequence (Q9EXV5 entry or part of it): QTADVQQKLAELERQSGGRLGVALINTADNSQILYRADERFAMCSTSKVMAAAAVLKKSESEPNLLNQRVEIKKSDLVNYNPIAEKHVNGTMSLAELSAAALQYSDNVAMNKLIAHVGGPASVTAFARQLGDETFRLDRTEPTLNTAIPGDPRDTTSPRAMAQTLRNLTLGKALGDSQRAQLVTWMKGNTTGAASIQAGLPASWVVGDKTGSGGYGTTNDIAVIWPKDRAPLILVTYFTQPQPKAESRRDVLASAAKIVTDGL

Take `Nc1nc(/C(=C/CC(=O)O)C(=O)N[C@@H]2C(=O)N3C(C(=O)O)=CCS[C@H]23)cs1` [Ceftibuten, ceftibuten]: the IC50 was greater than 1000 µM at CTX-M-15 and greater than 1000 µM on CTX-M-15 (read-out: IC50 (95% CI), competition with nitrocefin). Besides, the minimum inhibitory concentration (MIC) in assay [1] (AKOX1005 (SHV-2, TEM-1, DHA-1)) amounted to 2 µg/mL; in assay [1] (AKOX1009 (CTX-M-15)) it was 4 µg/mL.

For the origin of these results see patent publication US20180015100A1, “COMBINATION PRODUCTS FOR THE TREATMENT OF BACTERIAL INFECTIONS AND METHODS OF PRODUCING OR DOSING OF SAME” (priority 2016, published 2018).
